Measurements as given in the supplement of paper PMC4862054.

Tests used:
Assay in all cases: normalised viability (% of control), CellTiter-Blue; higher = more viable cells (about 100 = DMSO control)
CAL-85-1 [1] = settings: 3000 nM; incubation time: 72 h
Experimental: (§1)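 DSRT, CellTiter-Blue viability, 72 h incubation. Signal is normalised to DMSO and benzethonium chloride controls. Value is the normalised response at dose 8.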

HDQ-P1 [2] = settings: 3000 nM; incubation time: 72 h
Experimental: as §1

DU-4475 [3] = settings: 3000 nM; incubation time: 72 h
Experimental: as §1

CAL-51 [4] = settings: 3000 nM; incubation time: 72 h
Experimental: as §1

MDA-MB-453 [5] = settings: 3000 nM; incubation time: 72 h
Experimental: as §1

CAL-148 [6] = settings: 3000 nM; incubation time: 72 h
Experimental: as §1

CAL-85-1 [7] = settings: 300 nM; incubation time: 72 h
Experimental: (§2)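 DSRT, CellTiter-Blue viability, 72 h incubation. Signal is normalised to DMSO and benzethonium chloride controls. Value is the normalised response at dose 6.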

MDA-MB-453 [8] = settings: 300 nM; incubation time: 72 h
Experimental: as §2

CAL-148 [9] = settings: 300 nM; incubation time: 72 h
Experimental: as §2

MDA-MB-468 = settings: incubation time: 72 h
Outline: (§3)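 Each entry is normalised viability at a single listed concentration within a series. It comes from breast cancer cell lines incubated 72 h with compound in 384-well plates, then measured with CellTiter-Blue fluorescence at 560/590 nm. Every plate was normalised between vehicle (100) and a positive kill control (0).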

BT-549 = settings: incubation time: 72 h
Outline: as §3

HCC1599 = settings: incubation time: 72 h
Outline: as §3

Hs578T = settings: incubation time: 72 h
Outline: as §3

CAL-85-1 [10] = settings: incubation time: 72 h
Outline: as §3

MDA-MB-436 = settings: incubation time: 72 h
Outline: as §3

SK-BR-3 = settings: incubation time: 72 h
Outline: as §3

HDQ-P1 [11] = settings: incubation time: 72 h
Outline: as §3

CAL-120 = settings: incubation time: 72 h
Outline: as §3

MFM-223 = settings: incubation time: 72 h
Outline: as §3

DU-4475 [12] = settings: incubation time: 72 h
Outline: as §3

HCC1143 = settings: incubation time: 72 h
Outline: as §3

BT-474 = settings: incubation time: 72 h
Outline: as §3

CAL-51 [13] = settings: incubation time: 72 h
Outline: as §3

MDA-MB-453 [14] = settings: incubation time: 72 h
Outline: as §3

CAL-148 [15] = settings: incubation time: 72 h
Outline: as §3

MDA-MB-231 = settings: incubation time: 72 h
Outline: as §3

CC1=C(/C=C/C(C)=C/C=C/C(C)=C/C(=O)O)C(C)(C)CCC1 [Tretinoin]
Settings | normalised viability [%]
CAL-51 [4] | 90.8
CAL-85-1 [1] | 88.5
CAL-85-1 [7] | 96.6
CAL-148 [6] | 80.1
CAL-148 [9] | 74
DU-4475 [3] | 99
HDQ-P1 [2] | 121
MDA-MB-453 [5] | 94.1
MDA-MB-453 [8] | 91.5

normalised viability [%]
Settings | 3 nM | 10 nM | 30 nM | 100 nM | 1000 nM | 10000 nM
BT-474 | – | 129 | – | – | 111 | 115
BT-549 | – | 87.5 | – | – | 100 | 106
CAL-51 [13] | 106 | – | 94.6 | 99.6 | – | –
CAL-85-1 [10] | 85.3 | – | 92.2 | 95.7 | – | –
CAL-120 | – | 82.5 | – | – | 81.2 | 92.8
CAL-148 [15] | 81.6 | – | 89.9 | 87.8 | – | –
DU-4475 [12] | 78.4 | – | 93.1 | 83.7 | – | –
HCC1143 | – | 86.2 | – | – | 89.3 | 88.1
HCC1599 | – | 114 | – | – | 77.4 | 84.2
HDQ-P1 [11] | 120 | – | 122 | 107 | – | –
Hs578T | – | 123 | – | – | 105 | 100
MDA-MB-231 | – | 103 | – | – | 104 | 109
MDA-MB-436 | – | 97.9 | – | – | 81.6 | 95.5
MDA-MB-453 [14] | 121 | – | 103 | 105 | – | –
MDA-MB-468 | – | 99 | – | – | 117 | 113
MFM-223 | – | 92.6 | – | – | 89.7 | 84.3
SK-BR-3 | – | 103 | – | – | 66 | 45

C1CN1c1nc(N2CC2)nc(N2CC2)n1 [Triethylenemelamine]
Settings | normalised viability [%]
CAL-51 [4] | 109
CAL-85-1 [1] | 104
CAL-85-1 [7] | 99
CAL-148 [6] | 85.6
CAL-148 [9] | 118
DU-4475 [3] | 98.7
HDQ-P1 [2] | 107
MDA-MB-453 [5] | 113
MDA-MB-453 [8] | 108

normalised viability [%]
Settings | 3 nM | 10 nM | 30 nM | 100 nM | 1000 nM | 10000 nM
BT-474 | – | 111 | – | – | 126 | 130
BT-549 | – | 105 | – | – | 90.9 | 66.7
CAL-51 [13] | 108 | – | 106 | 97.4 | – | –
CAL-85-1 [10] | 104 | – | 87.6 | 108 | – | –
CAL-120 | – | 112 | – | – | 106 | 98.7
CAL-148 [15] | 101 | – | 105 | 101 | – | –
DU-4475 [12] | 102 | – | 102 | 102 | – | –
HCC1143 | – | 97.8 | – | – | 102 | 93.1
HCC1599 | – | 90.9 | – | – | 92.9 | 83.3
HDQ-P1 [11] | 110 | – | 94.3 | 118 | – | –
Hs578T | – | 145 | – | – | 117 | 110
MDA-MB-231 | – | 104 | – | – | 81.8 | 78.9
MDA-MB-436 | – | 105 | – | – | 96.5 | 102
MDA-MB-453 [14] | 115 | – | 102 | 122 | – | –
MDA-MB-468 | – | 112 | – | – | 112 | 107
MFM-223 | – | 99.4 | – | – | 98.3 | 64.8
SK-BR-3 | – | 105 | – | – | 109 | 105

Oc1ncc(N(CCCl)CCCl)c(O)n1 [Uracil mustard]
Settings | normalised viability [%]
CAL-51 [4] | 99.6
CAL-85-1 [1] | 93.8
CAL-85-1 [7] | 93.1
CAL-148 [6] | 113
CAL-148 [9] | 89.7
DU-4475 [3] | 105
HDQ-P1 [2] | 115
MDA-MB-453 [5] | 92.8
MDA-MB-453 [8] | 104

normalised viability [%]
Settings | 3 nM | 10 nM | 30 nM | 100 nM | 1000 nM | 10000 nM
BT-474 | – | 122 | – | – | 120 | 116
BT-549 | – | 93.4 | – | – | 103 | 90.6
CAL-51 [13] | 96.7 | – | 96.7 | 95.7 | – | –
CAL-85-1 [10] | 94.2 | – | 94.2 | 96.7 | – | –
CAL-120 | – | 88.3 | – | – | 87.5 | 82.5
CAL-148 [15] | 85.3 | – | 97.1 | 101 | – | –
DU-4475 [12] | 92 | – | 89.5 | 101 | – | –
HCC1143 | – | 78.4 | – | – | 84.8 | 92.6
HCC1599 | – | 82.1 | – | – | 78.4 | 92.7
HDQ-P1 [11] | 124 | – | 111 | 107 | – | –
Hs578T | – | 106 | – | – | 100 | 80.3
MDA-MB-231 | – | 100 | – | – | 103 | 89.5
MDA-MB-436 | – | 103 | – | – | 76.6 | 97.8
MDA-MB-453 [14] | 103 | – | 107 | 101 | – | –
MDA-MB-468 | – | 109 | – | – | 97.5 | 85.7
MFM-223 | – | 99.2 | – | – | 95.9 | 99.8
SK-BR-3 | – | 109 | – | – | 95.1 | 79.8

CCCCC(=O)OCC(=O)[C@]1(O)Cc2c(O)c3c(c(O)c2[C@@H](O[C@H]2C[C@H](NC(=O)C(F)(F)F)[C@H](O)[C@H](C)O2)C1)C(=O)c1c(OC)cccc1C3=O [Valrubicin]
Settings | normalised viability [%]
CAL-51 [4] | 6.83
CAL-85-1 [1] | 31.2
CAL-85-1 [7] | 75.1
CAL-148 [6] | 0.71
CAL-148 [9] | 35.5
DU-4475 [3] | -1.61
HDQ-P1 [2] | 45.8
MDA-MB-453 [5] | 18.3
MDA-MB-453 [8] | 73.9

normalised viability [%]
Settings | 3 nM | 10 nM | 30 nM | 100 nM | 1000 nM | 10000 nM
BT-474 | – | 114 | – | – | 74.9 | 55.1
BT-549 | – | 82.4 | – | – | 65.1 | 47.5
CAL-51 [13] | 93.1 | – | 80 | 55.3 | – | –
CAL-85-1 [10] | 80.8 | – | 81.8 | 81.5 | – | –
CAL-120 | – | 96.1 | – | – | 31.8 | 15.6
CAL-148 [15] | 90.9 | – | 72.9 | 60.1 | – | –
DU-4475 [12] | 90.1 | – | 55.4 | 49.8 | – | –
HCC1143 | – | 97.2 | – | – | 47.7 | 24.9
HCC1599 | – | 79.7 | – | – | 67.4 | 40.2
HDQ-P1 [11] | 96.2 | – | 97.4 | 84.7 | – | –
Hs578T | – | 98.8 | – | – | 55.5 | 22
MDA-MB-231 | – | 84.8 | – | – | 45.6 | 19.4
MDA-MB-436 | – | 111 | – | – | 84.9 | 42.8
MDA-MB-453 [14] | 104 | – | 93.2 | 99.3 | – | –
MDA-MB-468 | – | 105 | – | – | 42 | 30.6
MFM-223 | – | 92.1 | – | – | 72.6 | 24.2
SK-BR-3 | – | 91.3 | – | – | 25.9 | 9.82
